These results are taken from patent US20130116241A1, “NOVEL INHIBITOR COMPOUNDS OF PHOSPHODIESTERASE TYPE 10A” (AbbVie Inc., priority 2011, published 2013).

The structures appear in SMILES notation. Structures can show the parent of a compound that is named as a salt.

Sequence of human PDE10A (Q9Y233 290-1055 limits assumed): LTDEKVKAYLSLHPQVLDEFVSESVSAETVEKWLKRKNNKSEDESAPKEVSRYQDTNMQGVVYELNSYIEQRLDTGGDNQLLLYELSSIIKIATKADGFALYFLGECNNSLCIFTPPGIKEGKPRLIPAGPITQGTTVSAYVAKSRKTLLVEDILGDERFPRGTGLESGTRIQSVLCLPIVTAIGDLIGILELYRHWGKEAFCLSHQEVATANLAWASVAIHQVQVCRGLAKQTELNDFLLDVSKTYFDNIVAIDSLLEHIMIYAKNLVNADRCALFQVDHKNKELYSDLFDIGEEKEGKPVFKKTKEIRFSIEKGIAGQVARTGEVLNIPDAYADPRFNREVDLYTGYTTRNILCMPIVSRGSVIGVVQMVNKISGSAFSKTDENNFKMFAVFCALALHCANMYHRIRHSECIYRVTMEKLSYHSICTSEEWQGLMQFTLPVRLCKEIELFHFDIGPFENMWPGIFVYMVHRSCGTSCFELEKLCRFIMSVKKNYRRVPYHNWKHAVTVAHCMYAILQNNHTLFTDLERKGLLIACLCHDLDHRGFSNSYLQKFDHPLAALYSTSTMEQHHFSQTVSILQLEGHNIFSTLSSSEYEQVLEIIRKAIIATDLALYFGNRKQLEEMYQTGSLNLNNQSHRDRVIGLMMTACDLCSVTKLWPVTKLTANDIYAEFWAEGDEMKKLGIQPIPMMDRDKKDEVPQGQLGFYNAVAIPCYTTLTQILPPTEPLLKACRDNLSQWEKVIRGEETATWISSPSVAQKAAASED

The first experiment has as its target human PDE10A (UniProt Q9Y233). Description: Measurement of PDE activity (recombinant enzyme, HTRF cAMP kit). Format: biochemical. The conditions noted are these: Table 1, substrate 20 nM for PDE10, 60 minutes at 29 C. In outline: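 HTRF detection of cAMP left after hydrolysis, expressed as percent of uninhibited control to derive IC50. Reaction: serially diluted inhibitor mixed with recombinant enzyme, started with 20 nM cAMP, 60 min at 29 °C in Tris-HCl pH 7.5 buffer containing MgCl2 and BSA.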
Take `O=c1c2c(N3C4CCC3COC4)cccc2ccn1C1CC1c1ccc2ccccc2n1` [Example 263, anti 8-((1R,5S)-3-oxa-8-azabicyclo[3.2.1]octan-8-yl)-2-(2-(quinolin-2-yl)cyclopropyl)isoquinolin-1(2H)-one]: the IC50 is below 0.1 µM.

Staying with this experiment, now noted: Table 1, substrate 20 nM for PDE10, 60 minutes at 29 C, read-out: IC50.
Turning to `O=c1c2c(-c3cccnc3)cccc2ccn1C1CC1c1ccc2ccccc2n1` (single isomer, unassigned; (-)) [Example 239b, (−) anti 8-(pyridin-3-yl)-2-(2-(quinolin-2-yl)cyclopropyl)isoquinolin-1(2H)-one], the IC50 was below 0.1 µM.
Take `O=c1c2c(-c3ccnnc3)coc2ccn1[C@@H]1C[C@H]1c1ccc2ccccc2n1` (relative stereo) [Example 232, anti 3-(Pyridazin-4-yl)-5-(2-(quinolin-2-yl)cyclopropyl)furo[3,2-c]pyridin-4(5H)-one]: the IC50 is below 0.1 µM.
Regarding `Cn1cc(-c2cccc3cnn(CCc4ccc5ccccc5n4)c(=O)c23)cn1` [Example 139, 8-(1-Methyl-1H-pyrazol-4-yl)-2-[2-(quinolin-2-yl)ethyl]phthalazin-1(2H)-one], the concentration for half-maximal inhibition (IC50) was below 0.1 µM.
The same measure, in the same setting: the value for `O=c1c2c(N3CCCOCC3)cccc2cnn1CCc1cn2ccccc2n1` [Example 190, 2-[2-(Imidazo[1,2-a]pyridin-2-yl)ethyl]-8-(1,4-oxazepan-4-yl)phthalazin-1(2H)-one hydrochloride] was 0.1 to 0.2 µM; that for `Cc1cc2ccccc2nc1/C=C/n1ccc2scc(-c3ccncc3)c2c1=O` [compound 413, 5-[(E)-2-(3-methylquinolin-2-yl)ethenyl]-3-(pyridin-4-yl)thieno[3,2-c]pyridin-4(5H)-one] was below 0.1 µM; that for `O=c1c2c(-c3ccncc3)csc2c(-c2cccnc2)nn1CCc1cn2ccccc2n1` [compound 304, 5-[2-(imidazo[1,2-a]pyridin-2-yl)ethyl]-7-(pyridin-3-yl)-3-(pyridin-4-yl)thieno[2,3-d]pyridazin-4(5H)-one] was below 0.1 µM.
On the same count and under the same terms, the value for `N#CCc1ccc(-c2csc3cnn(CCc4ccc5ccccc5n4)c(=O)c23)cc1` [Example 15, (4-{4-oxo-5-[2-(quinolin-2-yl)ethyl]-4,5-dihydrothieno[2,3-d]pyridazin-3-yl}phenyl)acetonitrile] was 0.2 to 0.5 µM; that for `O=c1c2ccsc2c(-c2ccncc2)nn1CCc1ccc2ccccc2n1` [Example 2, 7-(Pyridin-4-yl)-5-[2-(quinolin-2-yl)ethyl]thieno[2,3-d]pyridazin-4(5H)-one] was below 0.1 µM; that for `Cn1cc(-c2cccc3cnn(CCc4cn5ccccc5n4)c(=O)c23)cn1` [compound 359, hydrochloride] was below 0.1 µM.
Consider `O=c1c2c(-c3cccnc3)cccc2ccn1C1CC1c1ccc2cc(F)ccc2n1` (stereo not drawn) [Example 272], for which the IC50 was below 0.1 µM.
In the case of `O=c1c2c(-c3ccnc(F)c3)csc2ccn1[C@@H]1C[C@H]1c1ccc2ccccc2n1` (relative stereo) [compound 286], the IC50 was below 0.1 µM.
As to `O=c1c2c(-c3ccncc3)cncc2cnn1CCc1ccc2ccccc2n1` [Example 301, 8-(pyridin-4-yl)-2-[2-(quinolin-2-yl)ethyl]pyrido[3,4-d]pyridazin-1(2H)-one], the IC50 is below 0.1 µM.
In the case of `O=c1c2c(-c3ccncc3)csc2cnn1CCc1cn2ccccc2n1` [Example 96, 5-[2-(Imidazo[1,2-a]pyridin-2-yl)ethyl]-3-(pyridin-4-yl)thieno[2,3-d]pyridazin-4(5H)-one], the IC50 is below 0.1 µM.
Regarding `O=c1c2c(N3CC[C@H](O)C3)cccc2ccn1C1CC1c1ccc2ccccc2n1` (stereo partly drawn) [Example 249, anti 8-((3S)-3-hydroxypyrrolidin-1-yl)-2-(2-(quinolin-2-yl)cyclopropyl)isoquinolin-1(2H)-one di[(2E)-but-2-enedioate]], the IC50 is 0.2 to 0.5 µM.
In the case of `O=c1c2c(-c3ccncc3)cccc2c(F)cn1C1CC1c1ccc2ccccc2n1` (stereo not drawn) [Example 275, anti 4-fluoro-8-(pyridin-4-yl)-2-(2-(quinolin-2-yl)cyclopropyl)isoquinolin-1(2H)-one], the IC50 is below 0.1 µM.
Still for that read-out and setting: the value for `Cc1cc(-c2csc3cnn(CCc4ccc5ccccc5n4)c(=O)c23)ccn1` [Example 51, 3-(2-methylpyridin-4-yl)-5-[2-(quinolin-2-yl)ethyl]thieno[2,3-d]pyridazin-4(5H)-one] was below 0.1 µM; that for `O=c1c2c(-c3ccc4c(c3)OCCO4)csc2cnn1CCc1ccc2ccccc2n1` [Example 50, 3-(2,3-dihydro-1,4-benzodioxin-6-yl)-5-[2-(quinolin-2-yl)ethyl]thieno[2,3-d]pyridazin-4(5H)-one] was 0.2 to 0.5 µM.
With `O=c1c2c(-c3ccncc3)coc2ccn1CCc1ccc2ccccc2n1` [Example 228, 3-(Pyridin-4-yl)-5-(2-(quinolin-2-yl)ethyl)furo[3,2-c]pyridin-4(5H)-one hydrochloride], the IC50 was below 0.1 µM.
For `O=c1c2c(-c3ccncc3)cccc2ccn1C1CC1c1ccc2ccccc2n1` (racemic) [Example 222, anti (rac) 8-(Pyridin-4-yl)-2-(2-(quinolin-2-yl)cyclopropyl)isoquinolin-1(2H)-one], the IC50 is below 0.1 µM.
In the case of `O=c1c2c(-c3ccco3)cccc2cnn1CCc1cn2ccccc2n1` [compound 358, hydrochloride], the IC50 lay within 0.1 to 0.2 µM.
In the case of `O=c1c2c(-c3ccncc3)cccc2cnn1CCc1cn2ccccc2n1` [Example 166, 2-[2-(Imidazo[1,2-a]pyridin-2-yl)ethyl]-8-(pyridin-4-yl)phthalazin-1(2H)-one], the IC50 was below 0.1 µM.
For `O=c1c2c(-c3cccs3)csc2cnn1CCc1ccc2ccccc2n1` [Example 34, 5-[2-(quinolin-2-yl)ethyl]-3-(thiophen-2-yl)thieno[2,3-d]pyridazin-4(5H)-one], the IC50 lay within 0.1 to 0.2 µM.
Turning to `O=c1c2c(-c3cncc(F)c3)cccc2cnn1CCc1cn2ccccc2n1` [compound 345, hydrochloride], the IC50 lay in the range of 0.1 to 0.2 µM.
In the case of `C=C(Cn1ncc2nccc(-c3ccncc3)c2c1=O)c1ccc2ccccc2n1` [Example 234, 4-(Pyridin-4-yl)-6-(2-(quinolin-2-yl)allyl)pyrido[2,3-d]pyridazin-5(6H)-one], the IC50 is below 0.1 µM.
The same measure, in the same setting: the value for `O=c1c2ccccc2c(-c2cncnc2)nn1CCc1cn2ccccc2n1` [Example 200, 2-[2-(Imidazo[1,2-a]pyridin-2-yl)ethyl]-4-(pyrimidin-5-yl)phthalazin-1(2H)-one] was below 0.1 µM; that for `COc1ccc(-c2csc3cnn(CCc4ccc5ccccc5n4)c(=O)c23)cc1F` [Example 78, 3-(3-fluoro-4-methoxyphenyl)-5-[2-(quinolin-2-yl)ethyl]thieno[2,3-d]pyridazin-4(5H)-one] was 0.2 to 0.5 µM.
Consider `O=c1c2c(-c3ccncc3)cccc2ccn1CCc1ccc2ccccc2n1` [Example 223, 8-(Pyridin-4-yl)-2-(2-quinolin-2-yl-ethyl)isoquinolin-1(2H)-one], for which the IC50 was below 0.1 µM.
Same read-out and setting: the figure for `O=c1c2c(-c3ccncc3)cccc2ccn1/C=C/c1ccc2ccccc2n1` [Example 221, (E)-8-(Pyridin-4-yl)-2-(2-(quinolin-2-yl)vinyl)isoquinolin-1(2H)-one] is below 0.1 µM; for `O=c1c2c(C3=COCC3)cccc2ccn1C1CC1c1ccc2ccccc2n1` (stereo not drawn) [Example 269, anti 8-(4,5-dihydrofuran-3-yl)-2-(2-(quinolin-2-yl)cyclopropyl)isoquinolin-1(2H)-one] it is below 0.1 µM.
